SMILES strings stand for the structures.

The target in one experiment is T1, B1R receptor of the rat (Rattus norvegicus, UniProt P97583).
T1 construct: host or cells: CHO K1 cells (Chinese hamster ovary), stably transfected
T1 sequence (P97583 1-337): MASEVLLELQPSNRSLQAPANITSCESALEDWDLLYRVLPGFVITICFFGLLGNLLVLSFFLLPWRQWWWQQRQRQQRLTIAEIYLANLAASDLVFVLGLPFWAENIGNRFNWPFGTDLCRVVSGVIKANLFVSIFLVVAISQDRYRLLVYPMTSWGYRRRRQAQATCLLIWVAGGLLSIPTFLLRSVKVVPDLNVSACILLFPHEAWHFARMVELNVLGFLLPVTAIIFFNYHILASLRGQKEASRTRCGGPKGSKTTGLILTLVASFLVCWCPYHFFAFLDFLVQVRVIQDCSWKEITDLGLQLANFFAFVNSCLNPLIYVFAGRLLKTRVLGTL
Nature of the experiment: Functional study on the bradykinin receptor 1 (B1R), FLIPR Ca2+ assay, rB1R cells. It counts as cell-based. Conditions: CHO-K1, test substance 10 μM, agonist Des-Arg9-bradykinin 100 nM, % inhibition compared with the maximum achievable inhibition, read-out: B1R Antagonism, rat [10 μM] % Inhibition. In short, it runs like this:
(§1)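 FLIPR Ca2+ read-out (Fluo-4, peak fluorescence) in stably transfected CHO K1 cells. Compounds at 10 μM, then 10 min later agonist challenge: human B1R with Lys-Des-Arg9-bradykinin 0.5 nM, rat B1R with Des-Arg9-bradykinin 100 nM; reported as % activation or % of maximal inhibition.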

The next experiment concerns the target T2, human B1R receptor (Homo sapiens, UniProt P46663).
T2 construct: host or cells: CHO K1 cells (Chinese hamster ovary), stably transfected
T2 sequence (P46663 1-353): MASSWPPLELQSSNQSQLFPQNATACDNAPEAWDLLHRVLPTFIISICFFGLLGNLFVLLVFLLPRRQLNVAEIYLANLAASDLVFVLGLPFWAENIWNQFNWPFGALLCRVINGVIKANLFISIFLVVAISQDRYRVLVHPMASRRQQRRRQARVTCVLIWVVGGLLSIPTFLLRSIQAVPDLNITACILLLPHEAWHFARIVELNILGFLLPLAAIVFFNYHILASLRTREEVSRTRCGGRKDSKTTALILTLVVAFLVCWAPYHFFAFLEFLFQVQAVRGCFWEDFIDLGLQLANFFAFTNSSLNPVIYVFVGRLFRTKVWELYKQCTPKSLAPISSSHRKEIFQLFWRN
Put plainly: Functional study on the bradykinin receptor 1 (B1R), FLIPR Ca2+ assay, hB1R cells. It counts as cell-based. The following applies: CHO-K1, test substance 10 μM, agonist Lys-Des-Arg9-bradykinin 0.5 nM, % inhibition compared with the maximum achievable inhibition, read-out: B1R Antagonism, human [10 μM] % Inhibition. In short, it runs like this:
as §1

As to `Cc1nccn1-c1ccc(NC(=O)COCC2CCCCN2S(=O)(=O)c2c(Cl)cccc2Cl)cc1` (centres unmarked) [Example 527, 2-((1-(2,6-dichlorophenylsulfonyl)piperidin-2-yl)methoxy)-N-(4-(2-methyl-1H-imidazol-1-yl)phenyl)acetamide], the inhibition (usually the change of the read-out against control, counted positive when it falls) at 10 µM was found to be 97.3% on B1R receptor of the rat and 97.2% at human B1R receptor.

Regarding `COc1cc(C)c(S(=O)(=O)N2CCCC2COCC(=O)Nc2ccc(N3CCOCC3)c(Cl)c2)c(C)c1` (centres unmarked) [Example 493, N-(3-chloro-4-morpholinophenyl)-2-((1-(4-methoxy-2,6-dimethylphenylsulfonyl)pyrrolidin-2-yl)methoxy)acetamide], the figures for the inhibition at 10 µM on B1R receptor of the rat and at human B1R receptor were 99.5% and 40.6%, respectively.

For the molecule `Cc1ccc(Cl)cc1N1CCN(C(=O)COCC2CCCCN2S(=O)(=O)c2c(Cl)cccc2Cl)CC1` (centres unmarked) [Example 321, 1-(4-(5-chloro-2-methylphenyl)piperazin-1-yl)-2-((1-(2,6-dichlorophenylsulfonyl)piperidin-2-yl)methoxy)ethanone], the inhibition at 10 µM on B1R receptor of the rat was 100%; on human B1R receptor, 41.2%.

In the case of `COc1cc(C)c(S(=O)(=O)N2CCCCC2COCC(=O)NC2CCN(Cc3ccccc3)C2)c(C)c1` (centres unmarked) [Example 365, N-(1-benzylpyrrolidin-3-yl)-2-((1-(4-methoxy-2,6-dimethylphenylsulfonyl)piperidin-2-yl)methoxy)acetamide], the inhibition at 10 µM at B1R receptor of the rat turned out to be 99.8%; on human B1R receptor, 55.6%.

For the molecule `CN1CCC(N2CCN(C(=O)COCC3CCCCN3S(=O)(=O)c3cccc(Br)c3)CC2)CC1` (centres unmarked) [Example 121, 2-((1-(3-bromophenylsulfonyl)piperidin-2-yl)methoxy)-1-(4-(1-methylpiperidin-4-yl)piperazin-1-yl)ethanone], the inhibition at 10 µM was 52.7% on B1R receptor of the rat and 70.5% on human B1R receptor.

Consider `COc1cc(C)c(S(=O)(=O)N2CCCC2COCC(=O)N2CCN(Cc3ccccc3)CC2)c(C)c1` (centres unmarked) [Example 460, 1-(4-benzylpiperazin-1-yl)-2-((1-(4-methoxy-2,6-dimethylphenylsulfonyl)pyrrolidin-2-yl)methoxy)ethanone], for which the inhibition at 10 µM at B1R receptor of the rat turned out to be 101%; on human B1R receptor it was 96.6%.

As for `COc1cc(C)c(S(=O)(=O)N2CCCC2COCC(=O)N2CCN(c3cccc(Cl)c3)CC2)c(C)c1` (centres unmarked) [Example 346, 1-(4-(3-chlorophenyl)piperazin-1-yl)-2-((1-(4-methoxy-2,6-dimethylphenylsulfonyl)pyrrolidin-2-yl)methoxy)ethanone], the inhibition at 10 µM was found to be 101% on B1R receptor of the rat and 95.5% at human B1R receptor.

For the molecule `COc1cc(C)c(S(=O)(=O)N2CCCCC2COCC(=O)N(C)[C@H]2CCN(Cc3ccccc3)C2)c(C)c1` (stereo partly drawn) [Example 364, N—((S)-1-benzylpyrrolidin-3-yl)-2-((1-(4-methoxy-2,6-dimethylphenylsulfonyl)piperidin-2-yl)methoxy)-N-methylacetamide], the inhibition at 10 µM at B1R receptor of the rat was determined as 101%; on human B1R receptor, 105%.

On to `O=C(COCC1CCCCN1S(=O)(=O)c1c(Cl)cccc1Cl)N1CCN(c2ncc(Cl)cc2Cl)CC1` (centres unmarked) [Example 551, 2-((1-(2,6-dichlorophenylsulfonyl)piperidin-2-yl)methoxy)-1-(4-(3,5-dichloropyridin-2-yl)piperazin-1-yl)ethanone], for which the inhibition at 10 µM at B1R receptor of the rat is 102%; on human B1R receptor it was 52.7%.

In the case of `O=C(COCC1CCCCN1S(=O)(=O)c1c(Cl)cccc1Cl)N1CCN(CCc2ccccc2)CC1` (centres unmarked) [Example 320, 2-((1-(2,6-dichlorophenylsulfonyl)piperidin-2-yl)methoxy)-1-(4-phenethylpiperazin-1-yl)ethanone], the inhibition at 10 µM was 102% at B1R receptor of the rat and 106% at human B1R receptor.

These data come from patent US8435978B2, “Substituted sulfonamide compounds” (Gruenenthal GmbH, priority 2006, dated 2013).
